We go through two compounds from patent US12005050B2, “Methods for preventing or treating H. pylori infection” (TENNOR THERAPEUTICS (SUZHOU) LIMITED, priority 2022, dated 2024).

The structures appear in SMILES notation.

The test system of one series is Helicobacter pylori. To be noted: In China; cited from earlier work.
For series [1] the following is noted: human, in vivo. As for the experimental part:
The 40 patients were randomly allocated to four groups at a ratio of 1:1:1:1. […] The detection linear range was as below: • Compound I: Lower Limit Of Quantitation (LLOQ): 1.00 ng/mL; Upper Limit Of Quantitation (ULOQ): 1,000 ng/mL • Rabeprazole sodium: LLOQ: 2.00 ng/mL; […] […] Pharmacokinetics Evaluation Plasma drug concentrations of various groups at different time points were determined, including: arithmetic mean, standard deviation, minimum, median, maximum, geometric mean, coefficient of variation, and coefficient of geometric variation. The pharmacokinetic parameters calculated from the first and last administration were descriptively analyzed according to various trial groups, including: arithmetic mean, standard deviation, minimum value, median, maximum value, geometric mean, coefficient of variation, geometric coefficient of variation, etc. In addition, the accumulation index AUC0-tau, ss(D15)/AUC0-tau (D1) was calculated. […]

Take `Cc1ncc([N+](=O)[O-])n1CCO` [metronidazole]: the “Resistance rate of Helicobacter pylori” value in the series on Helicobacter pylori was 40-70%. Turning to `COCCCOc1ccnc(C[S+]([O-])c2nc3ccccc3[n-]2)c1C.[Na+]` (centres unmarked) [rabeprazole, rabeprazole sodium, reference compound], the “Effect of amoxicillin on the major pharmacokinetic parameters of rabeprazole” value in series [1] is reported as “no significant effect”.
